Experimental data as given in patent US9377472B2, “Biological complex specific for Alzheimer's disease detection in vitro and use thereof” (Amoneta Diagnostics, priority 2012, dated 2016).

Legend:
[1] = system: PC12 cells; assay: Calcium imaging (Fura-2) of differentiated PC12 cells after acute and/or chronic Aβ peptide application; assay type: cell-based, rat; settings: preincubated overnight at low concentration (10 nM), then acute 1 μM Aβ1-42
Procedure: PC12 rat pheochromocytoma cells were cultured in RPMI 1640 medium (InVitrogen) supplemented with 5% heat-inactivated horse serum, 10% foetal bovine serum (Dominique Dutcher) and antibiotics (penicillin 100 U/ml, streptomycin 100 U/ml, Sigma) at 37° C. in 5% CO2. PC12 cells were reseeded once a week. Before use, cells were platted in 35 mm glass-bottom culture dishes coated with type I collagen and Poly-L-ornithine; NGF (50 μg/1, Sigma) was added in the culture medium to induce their neuronal differentiation. Cells were used after 5 days in vitro, when they express a complete neuronal phenotype (neurite like extensions, voltage dependent ionic channels, neurotransmitters receptors and neurotransmitter secretion capacities).
PC12 cells platted on glass-bottom culture dishes were loaded with Fura-2 AM (1 μM, InVitrogen) and pluronic acid (InVitrogen) in a Hepes buffer for 20 min at 37° C. […] Fluorescence was excited by a xenon lamp equipped with two alternating filters allowing a fluorescence excitation at 350 nm for Ca^2+-bound Fura-2 and at 380 nm for Ca^2+-unbound Fura-2. Image pairs were recorded during 20 minutes every 5 seconds using an EM-CCD camera (Hamamatsu Photonics). Emitted fluorescence intensities (510 nm) were measured from regions of interest centered on individual cells. Normalized ratios were calculated. […]

[2] = system: PC12 cells; assay: Immunocytochemistry of Aβ oligomers bound to PC12 cells (A11 antibody); assay type: cell-based, rat
Procedure: In an attempt to characterise the tertiary form of the peptide bound to the cells and responsible for the priming effect that was observed immunocytochemical experiments were performed: PC12 cells were plated on poly-L-ornithine coated coverslips and maintained for 5 days in culture media supplemented with NGF to induce neuronal differentiation at 37° C. According to experimental conditions, PC 12 cells have undergone a chronic treatment and/or an acute treatment (see Example 1). Cells were subsequently rinsed to eliminate unbound Aβ and fixed with 4% paraformaldehyde in phosphate buffered saline (PBS) for 10 minutes. PC12 cells were then incubated in a blocking solution (3% Bovine Serum Albumin in PBS) for 1 hour at room temperature. A rabbit polyclonal antibody A11 (Millipore) directed against Aβ oligomers diluted 1:1500 in blocking solution was applied to the cells overnight at 4° C. Cells were washed three times for 10 minutes with the blocking solution and incubated with the appropriate secondary Dylight 549-conjugated antibody goat […], (Jackson Immunoresearch, diluted 1:2000) for 2 hours at room temperature, washed 3×10 minutes in PBS and mounted in Mowiol.
Panel G of FIG. 2(g) represents the quantification of the fluorescence intensity in the different experimental conditions in 2(a) to 2(f).

Substance: Aβ1-42: synthetic beta-amyloid peptide 1-42 (Bachem or Anaspec), SEQ ID NO: 4
- priming: [Ca^2+]i response to subsequent acute 1 μM Aβ1-42 after overnight preincubation with the peptide [1]: amplified
- fluorescent signal of bound Aβ oligomers after acute application only ([2]; acute application of 1 μM, no preincubation): No significant fluorescent signal
- fluorescent signal of bound Aβ oligomers, chronic preincubation associated to acute stimulation ([2]; chronic preincubation plus acute stimulation): a clear signal was observed
- fluorescent signal of bound Aβ oligomers after preincubation only ([2]; preincubation with 10 or 50 nM, no acute application): No significant fluorescent signal
